Values of other authors, collected in patent publication US20170247647A1, “FLAVOR NANOEMULSIONS AND METHODS OF PREPARING THE SAME” (International Flavors & Fragrances Inc., priority 2014, published 2017).

What was measured:
[1] = commercial surfactant

## CSC [dimethyl sulfide]
other
  Water Solubility (g/L, approx.): insoluble

## CCOC(C)=O [ethyl acetate]
other
  Water Solubility (g/L, approx.): ~90 g/L

## CCCC(=O)OCC [ethyl butyrate]
other
  Water Solubility (g/L, approx.): ~6 g/L

## CCOC(=O)CC [ethyl propionate]
other
  Water Solubility (g/L, approx.): ~14 g/L

## CCCC(=O)OC [methyl butyrate]
other
  Water Solubility (g/L, approx.): ~15 g/L

## Tween™ 20
[1]
  HLB: 16.7

## Tween™ 60
[1]
  HLB: 14.9

## Tween™ 80
[1]
  HLB: 15
